The text below walks through data of US7354734B2, “Fungal proteins and nucleic acids encoding same” (priority 2003, dated 2008).

“And” between values parts separate entries of the source, which are not always exact repeats. Equal entries are not always repeated. Where two headings read alike, the source gives them in different places.

Assay [1] relates to gliadin 33mer (fragment 57-89 of gliadin MM1). In words: Digestion of gliadin 33mer (RP-HPLC, ESI-MS). The format is biochemical, wheat. The note with it: for digestion of gliadin 33mer, enzyme alone: 37° C.
A further assay has as its target ruLAP1 (Trichophyton rubrum, UniProt Q5QHG5). The format is biochemical. The settings on record: for effect of inhibitor on ruLAP1 activity: Leu-AMC 5 mM.
The next assay has as its target ruLAP2 (Trichophyton rubrum, UniProt Q5QHG6). Type of assay: biochemical. The note with it: for ruLAP2 activity as percentage of control reaction without any cation / ruLAP2 activity as percentage of control reaction without inhibitor: Leu-MCA substrate, 15 min pre-incubation; for effect of inhibitor on ruLAP2 activity: Leu-AMC 5 mM.
A further assay addresses fuLAP1 (Aspergillus fumigatus, UniProt Q5VJG6). Kind of assay: biochemical. The format is biochemical.
Another assay relates to fuLAP2. Type of assay: biochemical, Aspergillus fumigatus. The note with it: for effect of inhibitor on fuLAP2 activity: Leu-AMC 5 mM.
For assay [2], the target named is T1, pkLAP (microsomal LAP from porcine kidney) (Sus scrofa, UniProt P15145).
T1 construct: purchased Sigma; host or cells: porcine kidney
T1 sequence (P15145 1-963): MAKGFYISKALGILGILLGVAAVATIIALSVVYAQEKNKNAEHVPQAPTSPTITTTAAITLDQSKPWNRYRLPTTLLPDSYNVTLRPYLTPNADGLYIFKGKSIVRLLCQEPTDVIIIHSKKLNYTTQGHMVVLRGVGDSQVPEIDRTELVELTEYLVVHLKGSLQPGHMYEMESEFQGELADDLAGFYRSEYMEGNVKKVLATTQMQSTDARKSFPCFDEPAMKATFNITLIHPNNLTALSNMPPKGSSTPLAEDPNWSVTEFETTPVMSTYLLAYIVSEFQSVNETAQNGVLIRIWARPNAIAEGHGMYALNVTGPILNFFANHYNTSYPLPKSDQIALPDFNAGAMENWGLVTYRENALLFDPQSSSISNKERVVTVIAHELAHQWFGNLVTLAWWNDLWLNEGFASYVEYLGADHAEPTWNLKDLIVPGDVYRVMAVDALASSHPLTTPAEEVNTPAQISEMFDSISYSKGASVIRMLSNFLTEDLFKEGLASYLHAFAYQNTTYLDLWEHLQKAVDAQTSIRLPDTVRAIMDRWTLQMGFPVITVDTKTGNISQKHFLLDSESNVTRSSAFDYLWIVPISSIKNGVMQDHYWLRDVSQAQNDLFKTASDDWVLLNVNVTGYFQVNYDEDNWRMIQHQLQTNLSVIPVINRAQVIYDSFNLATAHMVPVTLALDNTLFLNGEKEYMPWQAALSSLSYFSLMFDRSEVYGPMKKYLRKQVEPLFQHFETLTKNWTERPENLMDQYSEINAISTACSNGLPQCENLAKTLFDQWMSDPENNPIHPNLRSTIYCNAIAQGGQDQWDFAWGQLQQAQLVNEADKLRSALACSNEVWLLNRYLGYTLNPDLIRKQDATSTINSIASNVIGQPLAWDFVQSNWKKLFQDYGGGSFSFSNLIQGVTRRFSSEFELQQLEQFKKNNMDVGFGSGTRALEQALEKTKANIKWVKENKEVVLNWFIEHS
In words: Effect of inhibitors and metallic cations on LAP activity (Leu-AMC). Type of assay: biochemical. The note with it: for effect of inhibitor on pkLAP activity: Leu-AMC 5 mM.

The mark [3] stands for this setting: cation salt 0.5 mM, Leu-MCA substrate, 15 min pre-incubation.
Where [4] appears, read: cation salt 1 mM, Leu-MCA substrate, 15 min pre-incubation.
[5] abbreviates: inhibitor 1 mM, Leu-MCA substrate, 15 min pre-incubation.
[6] abbreviates: inhibitor 5 mM, Leu-MCA substrate, 15 min pre-incubation.
The mark [7] stands for this setting: inhibitor 500 μM, Leu-MCA substrate, 15 min pre-incubation.
Setting [8] is: inhibitor 20 μM, Leu-MCA substrate, 15 min pre-incubation.
[9] abbreviates: read-out: fuLAP1 activity as percentage of control reaction without inhibitor.
Where [10] appears, read: read-out: pkLAP activity as percentage of control reaction without inhibitor.
Setting [11] is: inhibitor 100 μM, Leu-MCA substrate, 15 min pre-incubation.

Sequence of fuLAP1 (Q5VJG6 16-388): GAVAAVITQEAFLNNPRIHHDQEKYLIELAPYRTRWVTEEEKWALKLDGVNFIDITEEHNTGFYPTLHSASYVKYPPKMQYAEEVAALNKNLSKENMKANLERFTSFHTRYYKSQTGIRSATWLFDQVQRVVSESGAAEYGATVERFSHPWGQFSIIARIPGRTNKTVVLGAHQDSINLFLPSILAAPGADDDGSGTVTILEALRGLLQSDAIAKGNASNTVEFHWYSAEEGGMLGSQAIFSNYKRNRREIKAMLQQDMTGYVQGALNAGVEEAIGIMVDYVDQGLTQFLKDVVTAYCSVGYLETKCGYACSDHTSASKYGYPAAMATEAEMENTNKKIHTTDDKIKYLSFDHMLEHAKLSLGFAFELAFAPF
Sequence of ruLAP2 (Q5QHG6 20-495): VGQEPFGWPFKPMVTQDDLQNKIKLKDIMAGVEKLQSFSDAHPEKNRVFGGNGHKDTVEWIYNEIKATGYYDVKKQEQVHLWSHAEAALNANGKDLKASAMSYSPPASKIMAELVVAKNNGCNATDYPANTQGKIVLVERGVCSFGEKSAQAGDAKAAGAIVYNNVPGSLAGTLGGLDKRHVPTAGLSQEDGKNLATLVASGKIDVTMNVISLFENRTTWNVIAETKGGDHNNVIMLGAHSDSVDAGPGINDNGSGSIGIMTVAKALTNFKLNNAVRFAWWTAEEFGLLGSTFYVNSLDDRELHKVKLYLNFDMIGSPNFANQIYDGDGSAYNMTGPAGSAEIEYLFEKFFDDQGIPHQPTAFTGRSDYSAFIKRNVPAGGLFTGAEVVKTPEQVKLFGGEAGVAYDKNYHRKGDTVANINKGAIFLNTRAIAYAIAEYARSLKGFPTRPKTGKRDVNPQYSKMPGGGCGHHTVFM
Sequence of ruLAP1 (Q5QHG5 21-373): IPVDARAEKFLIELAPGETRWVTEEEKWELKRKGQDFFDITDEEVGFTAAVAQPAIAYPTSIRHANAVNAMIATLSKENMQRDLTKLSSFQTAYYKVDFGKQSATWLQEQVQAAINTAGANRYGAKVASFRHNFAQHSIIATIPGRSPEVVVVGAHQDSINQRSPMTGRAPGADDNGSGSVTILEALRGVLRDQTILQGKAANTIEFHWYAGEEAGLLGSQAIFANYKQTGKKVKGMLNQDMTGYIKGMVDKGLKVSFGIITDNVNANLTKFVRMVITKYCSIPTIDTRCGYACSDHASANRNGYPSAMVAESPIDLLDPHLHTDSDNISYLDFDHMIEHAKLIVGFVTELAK

As to Chymotrypsin, in assay [1], the “digestion of the peptide, with addition of ruLAP2” value is “not able to breakdown” and the “digestion of gliadin 33mer, enzyme alone” value is “not able to breakdown”. For the same molecule, the “digestion of the peptide, with addition of DPPIV” value in assay [1] (same conditions, E/S (w:w) 1:50) is given as “not able to breakdown”.
`[Cl-].[Cl-].[Zn+2]` [Zn, ZnCl2]: on ruLAP1, the “ruLAP1 activity as percentage of control reaction without any cation” value was 43.0% and 68.9%. The results for the “ruLAP2 activity as percentage of control reaction without any cation” value on ruLAP2 (cation salt 0.5 mM) and at ruLAP2 (cation salt 1 mM) were 77.9% and 88.9%, respectively. Moreover, the “fuLAP1 activity as percentage of control reaction without any cation” value at fuLAP1 (setting [3]) is recorded as 60.7%; at fuLAP1 (setting [4]), 53.2%. In addition, the “fuLAP2 activity as percentage of control reaction without any cation” value with fuLAP2 (setting [3]) is 51.4%; with fuLAP2 (setting [4]) it was 119.5%. The “effect of divalent cation on pkLAP activity” value in assay [2] (Leu-AMC, cations 0.5 mM and 1 mM) is reported as “highly activated”. Further, the “pkLAP activity as percentage of control reaction without any cation” value is given as 437.6% in assay [2] (setting [3]) and 297.9% in assay [2] (setting [4]).
Take `c1cnc2c(c1)ccc1cccnc12` [orthophenanthroline]: the “ruLAP1 activity as percentage of control reaction without inhibitor” value on ruLAP1 (setting [5]) and at ruLAP1 (setting [6]) was 0% in each case. Further, the “ruLAP2 activity as percentage of control reaction without inhibitor” value at ruLAP2 (inhibitor 1 mM) and on ruLAP2 (inhibitor 5 mM) was 0% each time. In addition, the “fuLAP1 activity as percentage of control reaction without inhibitor” value on fuLAP1 (setting [5]) and on fuLAP1 (setting [6]) was 0% each time. The “fuLAP2 activity as percentage of control reaction without inhibitor” value in the assay on fuLAP2 (setting [5]) and in the assay on fuLAP2 (setting [6]) was 0% each time. Besides, the “pkLAP activity as percentage of control reaction without inhibitor” value in assay [2] (setting [5]) and in assay [2] (setting [6]) was 0% throughout.
Turning to `O=C(O)c1cc[c]([Hg][Cl])cc1` [p-chloromercuribenzoate, p-chloromercuribenzoic acid], the “ruLAP1 activity as percentage of control reaction without inhibitor” value on ruLAP1 (500 µM) is given as 32%. Also, the “effect of inhibitor on ruLAP2 activity” value at ruLAP2 is “blunted the activity”. In addition, at ruLAP2 (inhibitor 500 μM), the “ruLAP2 activity as percentage of control reaction without inhibitor” value is reported as 21%. Further, on fuLAP1 (setting [7]), the “fuLAP1 activity as percentage of control reaction without inhibitor” value turned out to be 90%. In addition, the “fuLAP2 activity as percentage of control reaction without inhibitor” value with fuLAP2 (setting [7]) stood at 96%. For the same molecule, in assay [2] (setting [7]), the “pkLAP activity as percentage of control reaction without inhibitor” value amounted to 59%.
As to `CC(C)C[C@H](NC(=O)[C@@H](O)[C@H](N)Cc1ccccc1)C(=O)O` [bestatin], the “effect of inhibitor on ruLAP1 activity” value at ruLAP1 is on record as “inhibited”. The “effect of inhibitor on ruLAP2 activity” value at ruLAP2 is recorded as “partial inhibitory effect”. The “effect of inhibitor on fuLAP1 activity” value at fuLAP1 (Leu-AMC 5 mM) is “inhibited”. Moreover, the remaining activity at 500 µM worked out at 11% on fuLAP1 (inhibitor 500 μM, Leu-MCA substrate, 15 min pre-incubation, read-out: fuLAP1 activity as percentage of control reaction without inhibitor) and 24% in assay [2] (inhibitor 500 μM, Leu-MCA substrate, 15 min pre-incubation, read-out: pkLAP activity as percentage of control reaction without inhibitor). The “effect of inhibitor on fuLAP2 activity” value in the assay with fuLAP2 is listed as “partial inhibitory effect”. Besides, the “fuLAP2 activity as percentage of control reaction without inhibitor” value in the assay on fuLAP2 (setting [7]) stood at 88%. In addition, the “effect of inhibitor on pkLAP activity” value in assay [2] is listed as “inhibited”.
In the case of `Cc1ccc(S(=O)(=O)N[C@@H](CCCCN)C(=O)CCl)cc1` [TLCK], on ruLAP1, the “effect of inhibitor on ruLAP1 activity” value is “no clear inhibitory effects”. The “ruLAP1 activity as percentage of control reaction without inhibitor” value on ruLAP1 (setting [8]) is 68%. For the same molecule, the “effect of inhibitor on ruLAP2 activity” value on ruLAP2 is reported as “no clear inhibitory effects”. The “ruLAP2 activity as percentage of control reaction without inhibitor” value on ruLAP2 (inhibitor 20 μM) is 96%. Further, the “effect of inhibitor on fuLAP1 activity” value on fuLAP1 (Leu-AMC 5 mM) is “no clear inhibitory effects”. In addition, the “fuLAP1 activity as percentage of control reaction without inhibitor” value on fuLAP1 (setting [8]) came out at 80%. Moreover, in the assay on fuLAP2, the “effect of inhibitor on fuLAP2 activity” value is given as “no clear inhibitory effects”. In addition, the “fuLAP2 activity as percentage of control reaction without inhibitor” value with fuLAP2 (setting [8]) is listed as 120%. For the same molecule, in assay [2], the “effect of inhibitor on pkLAP activity” value was “no clear inhibitory effects”. Besides, in assay [2] (setting [8]), the “pkLAP activity as percentage of control reaction without inhibitor” value worked out at 113%.
For the molecule `O=C(O)CN(CCN(CC(=O)O)CC(=O)O)CC(=O)O` [EDTA], on ruLAP1, the “effect of inhibitor on ruLAP1 activity” value is “more sensitive”. For the same molecule, at ruLAP2, the “effect of inhibitor on ruLAP2 activity” value is “more sensitive”. Also, the “effect of inhibitor on fuLAP1 activity” value at fuLAP1 is listed as “more sensitive”. Further, at fuLAP1 (setting [9]), the remaining activity at 1000 µM stood at 19% and the remaining activity at 5000 µM turned out to be 16%. Further, the “fuLAP2 activity as percentage of control reaction without inhibitor” value in the assay with fuLAP2 was 50% and 77%. Also, in assay [2] (setting [10]), the remaining activity at 1000 µM is 68% and the remaining activity at 5000 µM came to 99%.
Turning to `CC(C)C[C@H](NC(=O)[C@H]1O[C@@H]1C(=O)O)C(=O)NCCCCN=C(N)N` [E 64], the “ruLAP1 activity as percentage of control reaction without inhibitor” value on ruLAP1 (100 µM) was determined as 103%. Further, the “ruLAP2 activity as percentage of control reaction without inhibitor” value on ruLAP2 (inhibitor 100 μM) is on record as 34%. For the same molecule, at fuLAP1 (setting [11]), the “fuLAP1 activity as percentage of control reaction without inhibitor” value is on record as 190%. In addition, the “fuLAP2 activity as percentage of control reaction without inhibitor” value in the assay on fuLAP2 (setting [11]) is 71%. Further, in assay [2] (setting [11]), the “pkLAP activity as percentage of control reaction without inhibitor” value turned out to be 93%.
For the molecule `CC(=O)N[C@@H](CC(C)C)C(=O)N[C@@H](CC(C)C)C(=O)N[C@H](C=O)CCCNC(=N)N` [Leupeptin, leupeptin], at ruLAP1, the “effect of inhibitor on ruLAP1 activity” value was “no clear inhibitory effects”. In addition, on ruLAP2, the “effect of inhibitor on ruLAP2 activity” value is on record as “no clear inhibitory effects”. The “effect of inhibitor on fuLAP1 activity” value at fuLAP1 (Leu-AMC 5 mM) is “no clear inhibitory effects”. In addition, the remaining activity at 100 µM at fuLAP1 (inhibitor 100 μM, Leu-MCA substrate, 15 min pre-incubation, read-out: fuLAP1 activity as percentage of control reaction without inhibitor) stood at 149%; in assay [2] (inhibitor 100 μM, Leu-MCA substrate, 15 min pre-incubation, read-out: pkLAP activity as percentage of control reaction without inhibitor), 86%. Besides, in the assay on fuLAP2, the “effect of inhibitor on fuLAP2 activity” value is “no clear inhibitory effects”. Besides, in the assay with fuLAP2 (setting [11]), the “fuLAP2 activity as percentage of control reaction without inhibitor” value was 61%. In addition, the “effect of inhibitor on pkLAP activity” value in assay [2] is “no clear inhibitory effects”.

B1: Cytosolic porcine kidney aminopeptidase: cytosolic leucine aminopeptidase from porcine kidney, Sigma (protein, UniProt P28839 1-519, looked up)
Cytosol aminopeptidase: MFLLPLPAAARVAVRQLSVRRFWGPGPDAANMTKGLVLGIYSKEKEDDAPQFTSAGENFDKLVSGKLREILNISGPPLKAGKTRTFYGLHEDFSSVVVVGLGKKGAGVDDQENWHEGKENIRAAVAAGCRQIQDLEIPSVEVDPCGDAQAAAEGAVLGLYEYDELKQKKKVVVSAKLHGSGDQEAWQRGVLFASGQNLARHLMETPANEMTPTRFAEVIEKNLKSASSKTDVHIRPKSWIEEQEMGSFLSVAKGSEEPPVFLEIHYKGSPDASDPPLVFVGKGITFDSGGISIKASANMDLMRADMGGAATICSTIVSAAKLDLPINLVGLAPLCENMPSGKANKPGDVVRAKNGKTIQVDNTDAEGRLILADALCYAHTFNPKVIINAATLTGAMDIALGSGATGVFTNSSWLWNKLFEASIETGDRVWRMPLFEHYTKQIVDCQLADVNNIGKYRSAGACTAAAFLKEFVTHPKWAHLDIAGVMTNKDEVPYLRKGMAGRPTRTLIEFLLRFSQDSA
Consider B1, for which the “digestion of gliadin 33mer, enzyme alone” value in assay [1] is “totally inactive”.
